Key:
Format in all cases: cell-based
THP1 monocytes = experiment: Transwell cell migration assay, THP1; conditions: Homo sapiens, THP-1; THP1, Monocyte
Text: (§1) A375 (melanoma) (CRL-1619, ATCC, Manassas, Va., USA), A431 (melanoma) (CRL-2592, ATCC, Manassas, Va., USA), A2058 (melanoma) (CRL-11147, ATCC, Manassas, Va., USA), MDA-MB-231 (breast) (HTB-26, ATCC, Manassas, Va., USA), LS175T (colon) (ATCC, Manassas, Va., USA), HT29 (colon) (HTB-38, ATCC, Manassas, Va., USA), PC3 (prostate) (CRL-1435, ATCC, Manassas, Va., USA), Panc03.27 (pancreatic) (ATCC, Manassas, Va., USA), 4T1 (breast-mouse) (CRL-2539, ATCC, Manassas. Va., USA), D122 (lung-mouse) (the Weizmann Institute of Science), D122-luc (lung-mouse) (the Weizmann Institute of Science), and B16 F10.9 (melanoma-mouse) cells (Caliper Life Sciences, Hopkinton Mass.), were grown in RPMI medium supplemented with 10% FBS. HUVEC cells were grown in Endothelial Cell Growth Medium 2 and THP1 cells were grown in RPMI medium supplemented with 10% FBS, 2 mM L-Glutamine, 1.5 g/L sodium bicarbonate, 10 mM Hepes, 1 mM sodium pyruvate, 4.5 g/L glucose and 0.05 mM 2-mercaptoethanol. The cells were starved for 24 hours in medium without FBS. […] Cells that migrated to the lower side of the membrane were stained with Calcein-AM (Sigma) and images were taken with a fluorescence microscope. The number of migrating cells was quantified by ImageJ software and the IC50 values were calculated using Prism software (Graphpad).

[1] = system: MDA-MB-468 breast cancer cells; experiment: Transwell cell migration assay, MDA-MB-468 breast cancer cells; conditions: MDA-MB-468, 12.5 μM, 24 h, 8 μm pore (FIG. 2)
Method: (§2) MDA-MB-231 (HTB-26, ATCC, Manassas, Va., USA) and MDA-MB-468 (HTB-132, ATCC, Manassas, Va., USA) breast cancer cell lines and DU 145 (HTB-81, ATCC, Manassas, Va., USA) prostate cancer cell line grown in RPMI medium supplement with 10% FBS were starved for 24 hours in medium without FBS. After 24 hours, 5×10^4 cells in FBS free medium were placed in the upper chamber of 24-well Transwell apparatus (CORNING TRANSWELL® polycarbonate membrane inserts, 8 μm pore size) with solvent (DMSO/PEG400) or 12.5 μM Compound 1 as indicated. Medium with FBS and Compound 1 was added to the bottom chamber. Twenty-four hours later the cells from the upper chamber were removed with a cotton swab. Cells that migrated to the lower side of the membrane were stained with Calcein-AM (Sigma) and images were taken with a fluorescence microscope.

A2058 (melanoma) cells = experiment: Transwell cell migration assay, A2058; conditions: Homo sapiens
Text: as §1

[2] = system: MDA-MB-231 breast cancer cells; experiment: Transwell cell migration assay, MDA-MB-231 breast cancer cells
Method: as §2, with “microscope. […]” for “microscope.”

HUVEC cells = experiment: Transwell cell migration assay, HUVEC; conditions: Homo sapiens, Endothelial
Text: as §1

[3] = system: DU145 prostate cancer cell line; experiment: Transwell cell migration assay, DU 145 prostate cancer cell line; conditions: DU145, 12.5 μM, 24 h, 8 μm pore (FIG. 2)
Method: as §2

[4] = system: D122-luc (lung-mouse) cells; experiment: Transwell cell migration assay, D122-luc
Text: as §1

[5] = system: Panc03.27 (pancreatic) cells; experiment: Transwell cell migration assay, Panc03.27; conditions: Homo sapiens, PANC-03-27; Panc 03.27, Pancreatic
Text: as §1

## Cc1cc(C)nc(NS(=O)(=O)c2ccc(NC(=O)/C(=C\c3cccs3)NC(=O)c3cccs3)cc2)n1 [Compound 1]
THP1 monocytes
  IC50: > 30 µM
[1]
  cell migration (Transwell, images): inhibits the migration
A2058 (melanoma) cells
  IC50: 3.5 µM
[2]; Homo sapiens, MDA-MB-231, MDA-MB231, Breast
  IC50: 0.5 µM
[2]; MDA-MB-231, 12.5 μM, 24 h, 8 μm pore (FIG. 2)
  cell migration (Transwell, images): inhibits the migration
HUVEC cells
  IC50: 2.9 µM
[3]
  cell migration (Transwell, images): inhibits the migration
[4]
  IC50: 1.6 µM
[5]
  IC50: 1 µM
